In US12371454B2, “Cyclic peptide compound having Kras inhibitory action” (priority 2019, dated 2025):
Starred links: 1 amine or outer side, 2 acyl side, 3 side chain; linkers in the order of their positions; H or OH if unused. Positions of bridges follow the written chain, without caps; N, C: chain ends. Non-standard residues stand in square brackets, D forms with d. Residues, ends and D or L forms follow the SMILES beside them. *: point of attachment. hPhe(3,5-F2-4-CF3) = N[C@@H](CCc1cc(F)c(C(F)(F)F)c(F)c1)C(=O)O; hPhe(3-Cl-4-CF3) = N[C@@H](CCc1ccc(C(F)(F)F)c(Cl)c1)C(=O)O; NMePhe(4-CF3) = CN[C@@H](Cc1ccc(C(F)(F)F)cc1)C(=O)O; NMePhe(3-CN) = CN[C@@H](Cc1cccc(C#N)c1)C(=O)O; NMePhe(3-OMe) = CN[C@@H](Cc1cccc(OC)c1)C(=O)O; NMePhe(3-Br) = CN[C@@H](Cc1cccc(Br)c1)C(=O)O; NMePhe(4-Me) = CN[C@@H](Cc1ccc(C)cc1)C(=O)O; NMePhe(2-Cl) = CN[C@@H](Cc1ccccc1Cl)C(=O)O; NMedβ3hAla = C[C@H](CC(=O)[*:2])N(C)[*:1]; NMeGly(cPent) = CN[C@H](C(=O)O)C1CCCC1; X70 = CC(C)(O)COCCN(CC(=O)[*:2])[*:1]; X84 = O=C(CN(CCc1ccncc1)[*:1])[*:2]; NMeCha = CN[C@@H](CC1CCCCC1)C(=O)O; NMeChg = CN[C@H](C(=O)O)C1CCCCC1; NMeF = CN[C@@H](Cc1ccccc1)C(=O)O; NMeI = CC[C@H](C)[C@H](NC)C(=O)O; dNMeF = CN[C@H](Cc1ccccc1)C(=O)O; NMeD = CN[C@@H](CC(=O)O)C(=O)O; NMeL = CN[C@@H](CC(C)C)C(=O)O; d(β3hP) = O=C(O)C[C@H]1CCCN1; NMeNva = CCC[C@H](NC)C(=O)O; NMeV = CN[C@H](C(=O)O)C(C)C; d(β3hA) = C[C@@H](N)CC(=O)O; NMeS = CN[C@@H](CO)C(=O)O; NMeA = CN[C@@H](C)C(=O)O; Piperidide = C1CCN(*)CC1; Pyrrolidide = C1CCN(*)C1; dNMeA = CN[C@H](C)C(=O)O; Ac5c = NC1(C(=O)O)CCCC1; Aze = O=C(O)[C@@H]1CCN1; NEtG = CCNCC(=O)O; Sar = CNCC(=O)O; Propyl = CCC*

Biological target: T1, Kras and SOS1 (biotin-tagged human Kras loaded with GDP, His-tagged human SOS1) (Homo sapiens, UniProt P01116, G12D)
T1 construct: made in house; host or cells: E. coli (stated for Kras only)
T1 sequence (P01116 1-188 isoform P01116-2 G12D): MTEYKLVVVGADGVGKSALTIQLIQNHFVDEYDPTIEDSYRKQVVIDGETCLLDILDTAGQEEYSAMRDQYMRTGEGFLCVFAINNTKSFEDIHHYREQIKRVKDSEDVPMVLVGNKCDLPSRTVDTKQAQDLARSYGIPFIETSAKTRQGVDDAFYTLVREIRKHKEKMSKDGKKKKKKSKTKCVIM
Experiment: Protein-protein interaction inhibition between Kras and SOS1 (KrasGl2D-SOS PPI) using AlphaScreen
Assay type: binding
Conditions: AlphaScreen; biotin-tagged human Kras loaded with GDP, His-tagged human SOS1; read-out: KRAS G12D-SOS PPI IC50
Procedure, shortened: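 Binding between SOS1 and Kras is detected as bead-proximity luminescence: illuminate Ni-conjugated donors (680 nm), collect 520-620 nm emission from streptavidin-conjugated acceptors; Kras carries biotin and GDP loaded after purification, SOS1 carries a His tag.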

Structure (SMILES)	IC50
CC[C@H](C)[C@@H]1NC(=O)[C@H](CC(C)C)N(C)C(=O)C[C@@H](C(=O)N2CCCCC2)N(C)C(=O)[C@H]([C@@H](C)CC)N(C)C(=O)C2(CCCC2)NC(=O)[C@@H](Cc2ccccc2)N(C)C(=O)[C@H](CCc2ccc(C(F)(F)F)c(Cl)c2)NC(=O)CN(C)C(=O)[C@H](Cc2ccc(C)cc2)N(C)C(=O)[C@@H]2CCN2C(=O)[C@H](C)N(C)C1=O [Compound 1989] ([NMeL]I[NMeA][Aze][NMePhe(4-Me)][Sar][hPhe(3-Cl-4-CF3)][dNMeF][Ac5c][NMeI][NMeD]-Piperidide; lactam N-11)	460 nM
CC[C@H](C)[C@@H]1NC(=O)[C@H](CC(C)C)N(C)C(=O)C[C@@H](C(=O)N(C)C)N(C)C(=O)[C@H]([C@@H](C)CC)N(C)C(=O)C2(CCCC2)NC(=O)[C@H](Cc2cccc(OC)c2)N(C)C(=O)[C@H](CCc2ccc(C(F)(F)F)c(Cl)c2)NC(=O)CN(C)C(=O)[C@H](Cc2ccc(C)cc2)N(C)C(=O)[C@@H]2CCN2C(=O)[C@H](C)N(C)C1=O [Compound 1991] ([NMeL]I[NMeA][Aze][NMePhe(4-Me)][Sar][hPhe(3-Cl-4-CF3)][NMePhe(3-OMe)][Ac5c][NMeI][NMeD]-NMe2; lactam N-11)	9.2 nM
CC[C@H](C)[C@@H]1NC(=O)[C@H](C)N(C)C(=O)C[C@@H](C(=O)N2CCCCC2)N(C)C(=O)[C@H]([C@@H](C)CC)N(C)C(=O)C2(CCCC2)NC(=O)[C@@H](Cc2ccccc2)N(C)C(=O)[C@H](CCc2cc(F)c(C(F)(F)F)c(F)c2)NC(=O)CN(C)C(=O)[C@H](Cc2ccc(C(F)(F)F)cc2)N(C)C(=O)[C@@H]2CCN2C(=O)[C@H](C)N(C)C1=O [Compound 1992] ([NMeA]I[NMeA][Aze][NMePhe(4-CF3)][Sar][hPhe(3,5-F2-4-CF3)][dNMeF][Ac5c][NMeI][NMeD]-Piperidide; lactam N-11)	280 nM
CC[C@H](C)[C@@H]1NC(=O)[C@H](C)N(C)C(=O)C[C@@H](C(=O)N2CCCCC2)N(C)C(=O)[C@H]([C@@H](C)CC)N(C)C(=O)C2(CCCC2)NC(=O)[C@@H](Cc2ccccc2)N(C)C(=O)[C@H](CCc2ccc(C(F)(F)F)c(Cl)c2)NC(=O)CN(C)C(=O)[C@H](Cc2ccc(C)cc2)N(C)C(=O)[C@@H]2CCN2C(=O)[C@H](C)N(C)C1=O [Compound 1997] ([NMeA]I[NMeA][Aze][NMePhe(4-Me)][Sar][hPhe(3-Cl-4-CF3)][dNMeF][Ac5c][NMeI][NMeD]-Piperidide; lactam N-11)	220 nM
CC[C@H](C)[C@@H]1NC(=O)[C@H](C)N(C)C(=O)C[C@@H](C(=O)N(C)C)N(C)C(=O)[C@H]([C@@H](C)CC)N(C)C(=O)C2(CCCC2)NC(=O)[C@H](Cc2cccc(Br)c2)N(C)C(=O)[C@H](CCc2ccc(C(F)(F)F)c(Cl)c2)NC(=O)CN(C)C(=O)[C@H](Cc2ccc(C)cc2)N(C)C(=O)[C@@H]2CCN2C(=O)[C@H](C)N(C)C1=O [Compound 2000] ([NMeA]I[NMeA][Aze][NMePhe(4-Me)][Sar][hPhe(3-Cl-4-CF3)][NMePhe(3-Br)][Ac5c][NMeI][NMeD]-NMe2; lactam N-11)	15 nM
CCC[C@H]1C(=O)N[C@@H]([C@@H](C)CC)C(=O)N(C)CC(=O)N(C)CC(=O)N(C)[C@@H](CC2CCCCC2)C(=O)N(C)CC(=O)N[C@@H](CCc2ccc(C(F)(F)F)c(Cl)c2)C(=O)N2CCC[C@H]2C(=O)NC2(CCCC2)C(=O)N(C)[C@@H](C2CCCCC2)C(=O)N(C)[C@H](C(=O)N2CCCC2)CC(=O)N1C [Compound 2001] ([NMeNva]I[Sar][Sar][NMeCha][Sar][hPhe(3-Cl-4-CF3)]P[Ac5c][NMeChg][NMeD]-Pyrrolidide; lactam N-11)	0.48 nM
CC[C@H](C)[C@@H]1NC(=O)[C@H](CC(C)C)N(C)C(=O)C[C@@H](C(=O)N(C)C)N(C)C(=O)[C@H]([C@@H](C)CC)N(C)C(=O)C2(CCCC2)NC(=O)[C@H](Cc2cccc(C#N)c2)N(C)C(=O)[C@H](CCc2ccc(C(F)(F)F)c(Cl)c2)NC(=O)CN(C)C(=O)[C@H](Cc2ccc(C)cc2)N(C)C(=O)[C@@H]2CCN2C(=O)[C@H](C)N(C)C1=O [Compound 2002] ([NMeL]I[NMeA][Aze][NMePhe(4-Me)][Sar][hPhe(3-Cl-4-CF3)][NMePhe(3-CN)][Ac5c][NMeI][NMeD]-NMe2; lactam N-11)	3 nM
CC[C@H](C)[C@@H]1NC(=O)[C@H](CC(C)C)N(C)C(=O)C[C@H]2CCCN2C(=O)[C@H]([C@@H](C)CC)N(C)C(=O)C2(CCCC2)NC(=O)[C@@H]2CCCN2C(=O)[C@H](CCc2ccc(C(F)(F)F)c(Cl)c2)NC(=O)CN(C)C(=O)[C@H](Cc2ccc(C)cc2)N(C)C(=O)[C@@H]2CCN2C(=O)[C@H](C)N(C)C1=O [Compound 2003] (cyclo([Ac5c][NMeI][d(β3hP)][NMeL]I[NMeA][Aze][NMePhe(4-Me)][Sar][hPhe(3-Cl-4-CF3)]P))	8.6 nM
CC[C@H](C)[C@@H]1NC(=O)[C@H](C)N(C)C(=O)C[C@@H](C)NC(=O)[C@H](C(C)C)N(C)C(=O)C2(CCCC2)NC(=O)[C@@H]2CCCN2C(=O)[C@H](CCc2ccc(C(F)(F)F)c(Cl)c2)NC(=O)[C@@H](C)N(C)C(=O)[C@H](CC2CCCCC2)N(C)C(=O)CN(C)C(=O)[C@@H]2CCN2C1=O [Compound 2010] (cyclo([Ac5c][NMeV][d(β3hA)][NMeA]I[Aze][Sar][NMeCha][dNMeA][hPhe(3-Cl-4-CF3)]P))	220 nM
CC[C@H](C)[C@@H]1NC(=O)[C@H](C)N(C)C(=O)C[C@@H](C(=O)N(C)C)N(C)C(=O)[C@H]([C@@H](C)CC)N(C)C(=O)C2(CCCC2)NC(=O)[C@H](Cc2ccccc2Cl)N(C)C(=O)[C@H](CCc2ccc(C(F)(F)F)c(Cl)c2)NC(=O)CN(C)C(=O)[C@H](Cc2ccc(C)cc2)N(C)C(=O)[C@@H]2CCN2C(=O)[C@H](C)N(C)C1=O [Compound 2011] ([NMeA]I[NMeA][Aze][NMePhe(4-Me)][Sar][hPhe(3-Cl-4-CF3)][NMePhe(2-Cl)][Ac5c][NMeI][NMeD]-NMe2; lactam N-11)	17 nM
CC[C@H](C)[C@@H]1NC(=O)[C@H](C)N(C)C(=O)C[C@@H](C)NC(=O)[C@H](C(C)C)N(C)C(=O)C2(CCCC2)NC(=O)[C@@H]2CCCN2C(=O)[C@H](CCc2ccc(C(F)(F)F)c(Cl)c2)NC(=O)[C@@H](C)N(C)C(=O)[C@H](CC2CCCCC2)N(C)C(=O)[C@@H]2CCCN2C(=O)CN(CC)C1=O [Compound 2014] (cyclo([Ac5c][NMeV][d(β3hA)][NMeA]I[NEtG]P[NMeCha][dNMeA][hPhe(3-Cl-4-CF3)]P))	340 nM
CC[C@H](C)[C@@H]1NC(=O)[C@H](C)N(C)C(=O)C[C@@H](C)NC(=O)[C@H](C(C)C)N(C)C(=O)C2(CCCC2)NC(=O)[C@@H]2CCCN2C(=O)[C@H](CCc2ccc(C(F)(F)F)c(Cl)c2)NC(=O)[C@@H](C)N(C)C(=O)[C@H](CC2CCCCC2)N(C)C(=O)[C@@H]2CCN2C(=O)[C@H](CC2CCCCC2)N(C)C1=O [Compound 2015] (cyclo([Ac5c][NMeV][d(β3hA)][NMeA]I[NMeCha][Aze][NMeCha][dNMeA][hPhe(3-Cl-4-CF3)]P))	260 nM
CC[C@H](C)[C@@H]1NC(=O)[C@H](C)N(C)C(=O)C[C@@H](C)NC(=O)[C@H](C(C)C)N(C)C(=O)C2(CCCC2)NC(=O)[C@@H]2CCCN2C(=O)[C@H](CCc2ccc(C(F)(F)F)c(Cl)c2)NC(=O)[C@@H](C)N(C)C(=O)[C@H](CC2CCCCC2)N(C)C(=O)[C@@H]2CCN2C(=O)[C@H](Cc2ccccc2)N(C)C1=O [Compound 2019] (cyclo([Ac5c][NMeV][d(β3hA)][NMeA]I[NMeF][Aze][NMeCha][dNMeA][hPhe(3-Cl-4-CF3)]P))	110 nM
CC[C@H](C)[C@@H]1NC(=O)[C@H](CC(C)C)N(C)C(=O)C[C@@H](C(=O)N(C)C)N(C)C(=O)[C@H](C2CCCC2)N(C)C(=O)C2(CCCC2)NC(=O)CN(CCOCC(C)(C)O)C(=O)[C@H](CCc2ccc(C(F)(F)F)c(Cl)c2)NC(=O)CN(C)C(=O)[C@H](CC2CCCCC2)N(C)C(=O)[C@@H]2CCN2C(=O)[C@H](C)N(C)C1=O [Compound 2023] ([NMeL]I[NMeA][Aze][NMeCha][Sar][hPhe(3-Cl-4-CF3)][X70][Ac5c][NMeGly(cPent)][NMeD]-NMe2; lactam N-11)	1.7 nM
CCCOC[C@H]1C(=O)N(C)CC(=O)N[C@@H](CCc2ccc(C(F)(F)F)c(Cl)c2)C(=O)N(CCOCC(C)(C)O)CC(=O)NC2(CCCC2)C(=O)N(C)[C@@H]([C@@H](C)CC)C(=O)N(C)[C@H](C)CC(=O)N(C)[C@@H](CC(C)C)C(=O)N[C@@H]([C@@H](C)CC)C(=O)N(C)[C@@H](C)C(=O)N2CC[C@H]2C(=O)N1C [Compound 2027] (cyclo([Ac5c][NMeI][NMedβ3hAla][NMeL]I[NMeA][Aze][NMeS](Propyl)[Sar][hPhe(3-Cl-4-CF3)][X70]))	110 nM
CC[C@H](C)[C@@H]1NC(=O)[C@H](CC(C)C)N(C)C(=O)C[C@@H](C(=O)N(C)C)N(C)C(=O)[C@H]([C@@H](C)CC)N(C)C(=O)C2(CCCC2)NC(=O)CN(CCOCC(C)(C)O)C(=O)[C@H](CCc2ccc(C(F)(F)F)c(Cl)c2)NC(=O)CN(C)C(=O)[C@H](CC2CCCCC2)N(C)C(=O)[C@@H]2CCN2C(=O)[C@H](C)N(C)C1=O [Compound 2028] ([NMeL]I[NMeA][Aze][NMeCha][Sar][hPhe(3-Cl-4-CF3)][X70][Ac5c][NMeI][NMeD]-NMe2; lactam N-11)	11 nM
CC[C@H](C)[C@@H]1NC(=O)[C@H](CC(C)C)N(C)C(=O)C[C@@H](C(=O)N2CCCCC2)N(C)C(=O)[C@H](C2CCCCC2)N(C)C(=O)C2(CCCC2)NC(=O)CN(CCc2ccncc2)C(=O)[C@H](CCc2ccc(C(F)(F)F)c(Cl)c2)NC(=O)CN(C)C(=O)[C@H](CC2CCCCC2)N(C)C(=O)CN(C)C(=O)CN(C)C1=O [Compound 2029] ([NMeL]I[Sar][Sar][NMeCha][Sar][hPhe(3-Cl-4-CF3)][X84][Ac5c][NMeChg][NMeD]-Piperidide; lactam N-11)	0.83 nM
